Experimental findings from patent US5952301A, “Compositions and methods for enhancing intestinal function” (1149336 Ontario Inc., priority 1996, dated 1999) are described below.

One assay deals with large intestine. The assay can be described thus: Co-administration of GLP-2 with IGF-1 or GH: large intestine mass (Example 2). The assay is classed as in vivo, mice. Particulars: for Large Intestine Mass: s.c. twice daily (GH once daily) for 10 days, sacrifice day 11, GLP-2 peptides 2.5 μg, IGF-1/LRIGF-1 50 μg, GH 25 μg per dose, CD1 female mice; for % Change Relative to PBS Control (large intestine) / Change in Intestine Mass Relative to Control (large intestine): same regimen; for Change in Intestine Mass Relative to Control (large intestine): relative to PBS control. The text has this: (§1) Forty-eight, six week old female CD1 mice (approx. 25 grams, obtained from Charles River Laboratories) were acclimatized in the animal facility for 1 week prior to the experiment. They were housed in plastic bottom, wire lid cages, maintained on a 12 hr light/dark cycle, and allowed chow and water, ad libitum throughout the study. Four days before starting the treatment the mice were weighed using a Mettler PJ300 scale and randomly allocated to 1 of 12 treatment groups. For the experiment, subcutaneous injections in the right hind quarter were given twice daily in the morning and evening for 10 days. However, Growth Hormone (GH) was administered only once a day in the morning. On day 10, the mice were fasted from 12 noon on. Body weight was also taken on day 5 and day 11.
(§2) The treatment groups consisted of the following peptides and peptide combinations. The amount of peptide received per dose by each animal is marked in beside each entry.
(§3) The peptides were weighed (Mettler AE166 scale), reconstituted and aliquoted on the day prior to the first injection. The injection volume, 0.5 ml, was constant through out the experiment using a 1/2 cc U-100 Insulin Syringe (Becton Dickinson and Company, N.J.). All peptide aliquots, except Protropin (GH), were kept at -20° C. and removed 60 minutes prior to injection to thaw. GH was kept at 4° C.
(§4) Control mice (group 1) received the same volume (0.5 ml) of phosphate buffered saline (PBS-1x-137 mM NaCl, 2.7 mM KCl, 4.3 mM Na2HPO4, pH 7.3). Peptides [rat GLP-2] (5 μg/ml) and human [Gly 2] GLP-2 (5 μg/ml) were reconstituted in PBS. One microliter of 1 N NaOH was required to dissolve [Gly2]hGLP-2 in 1 ml.
(§5) IGF recombinant peptides (IGF-1, Lot #FJF-103;Long R3IGF-1(LRIGF-1), Lot# HJF-A01 GroPep Pty Ltd., Australia) stock solutions were reconstituted in 10 mM HCl at a concentration of 1 mg/ml. To minimize the absorption of the peptide to the plastic surface, RIA Grade Bovine Serum Albumin (BSA) (BioLabs Lot 7943) was added to the PBS working solution (100 μg/ml BSA final concentration). Protropin (Growth hormone) (Lot C9009A2, Genentech Canada Inc., Burlington, ON) stock solution was reconstituted with Bacteriostatic water supplied in the kit. The working solution (50 μg/ml) was diluted in PBS (without BSA). Combination treatments of GH+rat GLP-2 and GH+[Gly 2]hGLP-2 were administered by mixing 0.25 mls of each peptide, which were taken up into the same syringe to maintain a consistent injection volume of 0.5 ml. All other combination treatments (for example, rGLP-2+IGF etc.) were initially made up as separate solutions, mixed together, and frozen down together as aliquots of a single mixture, to be administered as single 0.5 ml injections.
(§6) Mice were sacrificed on day 11. Weight measurements were taken for the heart, kidneys, stomach, small intestine and large intestine. Small intestine length was also measured. Blood was taken via cardiac puncture and the plasma was frozen for future analysis. Tissues were also removed for histological analysis.

Assay [1] relates to small intestine. Put plainly: Co-administration of GLP-2 with IGF-1 or GH: small intestine mass (Example 2). Particulars: for Small Intestine Mass: s.c. twice daily (GH once daily) for 10 days, sacrifice day 11, GLP-2 peptides 2.5 μg, IGF-1/LRIGF-1 50 μg, GH 25 μg per dose, CD1 female mice; for % Change Relative to PBS Control (small intestine) / Change in Intestine Mass Relative to Control (small intestine): same regimen; for Change in Intestine Mass Relative to Control (small intestine): relative to PBS control. The format is in vivo, mice.
Excerpt: as §1, §2, §3, §4, §5, §6

Assay [2] concerns small intestine. Put plainly: Effect of rat GLP-2 on small intestine weight in mice (Example 1). The format is in vivo. Particulars: for Small Intestine Weight % body wt / Small Intestine Weight Ave: group average; for Small Intestine Weight % body wt / Small Intestine Weight Ave / Small Intestine Weight Day 10: 41.5 μg peptide per injection s.c. every 12 hours for 10 days, CD1 females; for Small Intestine Weight Day 10: single mice. The procedure: This experiment was designed to investigate the effect of GLP-2 on small intestine growth. Mice were treated with human GLP-1, rat GLP-2, or no peptide, and the mass of the small intestine analyzed.
For this experiment, rat GLP-2 and human GLP-1 (7-36 amide) were custom synthesized by application of the tBoc-based solid phase approach. […] The pH was then readjusted to about 7.0 by addition of an equal volume of IN NaOH […], and the solution volume was then adjusted to 10 mL by addition of distilled water. To prepare the formulation for injection, the 10 mL peptide solution and the 50 mL solution of 16% gelatin were combined with mixing, and aliquots for injection were drawn into a 0.5 mL insulin syringe. The same procedure was used to formulate the GLP-1, with the exception that no acid/base adjustment was necessary given its relative greater solubility in water.
Three groups of six mice (8 week old, CD1 females from Charles River Laboratories) were treated as follows. Each mouse received injections for 10 days. The injections were delivered subcutaneously in a final volume of 16% gelatin, with 0.5 cc injected subcutaneously every 12 hours. Mice treated with GLP-1 or GLP-2 peptide received 41.5 μg of the respective peptide in each injection. Control mice received 0.5 cc of 16% gelatin solution, but no peptide. Mice were fed standard rat chow with free access to food and water, until 12 hours prior to sacrifice, at which time food was withheld, and water only was given. The weight of the small intestine was ascertained by excising the entire intestine, and removing the stomach (proximal end) and appendix/cecum/large intestine (distal end). The remaining small intestine was cleaned with saline to remove feces, and weighed.

“And” between values parts separate entries of the source, which are not always exact repeats. Identical values can stand only once.

Consider “IGF-1: Insulin-Like Growth Factor-1, recombinant peptide, GroPep Pty Ltd.”, for which, in the assay with large intestine, the “Large Intestine Mass” value is 0.262 g, the “% Change Relative to PBS Control (large intestine)” value is given as -7% and the “Change in Intestine Mass Relative to Control (large intestine)” value came to 0.021 g. In the assay with small intestine [1], the “Small Intestine Mass” value is 1.158 g and 1.517 g.
Regarding “[Gly 2] hGLP-2: Human GLP-2 having Gly substituted for Ala at position 2 (HGDGSFSDEMNTILDNLAARDFINWLIQTKITD; Glucagon-like peptide 2; UniProt P01275 146-178, looked up, variant A2G)”, in the assay with large intestine, the “Large Intestine Mass” value was 0.308 g, the “% Change Relative to PBS Control (large intestine)” value is recorded as “+9%” and the “Change in Intestine Mass Relative to Control (large intestine)” value was determined as 0.025 g. Moreover, in the assay with small intestine [1], the “Small Intestine Mass” value is listed as 1.810 g, the “% Change Relative to PBS Control (small intestine)” value is listed as “+75%” and the “Change in Intestine Mass Relative to Control (small intestine)” value is reported as 0.775 g.
For “hGH: Protropin (Growth hormone), Genentech Canada Inc. [reference compound]”, in the assay on large intestine, the “Large Intestine Mass” value came to 0.260 g, the “% Change Relative to PBS Control (large intestine)” value was -8% and the “Change in Intestine Mass Relative to Control (large intestine)” value is given as 0.023 g. Besides, in the assay with small intestine [1], the “Small Intestine Mass” value is recorded as 1.230 g, the “% Change Relative to PBS Control (small intestine)” value is listed as “+19%” and the “Change in Intestine Mass Relative to Control (small intestine)” value is 0.195 g.
With “human GLP-1 (7-36 amide) [reference compound]”, in the assay with small intestine [2], the “Small Intestine Weight % body wt” value was 5.26 ± .25 % body wt; the “Small Intestine Weight Ave” value is 1.33 ± .04 gm; the “Small Intestine Weight Day 10” value was 1.4 gm and 1.3 gm and 1.2 gm.
On to “rat GLP-2: rat Glucagon-like peptide-2, 33 amino acid peptide, custom synthesized by tBoc-based solid phase approach (HADGSFSDEMNTILDNLATRDFINWLIQTKITD; Glucagon-like peptide 2; UniProt P06883 146-178, looked up)”, for which the “increase in the mass of small intestine relative to control group and GLP-1 group” value in the assay on small intestine [2] (about 2 mg/kg (about 500 nmole/kg) twice daily for 10 days) is reported as “statistically significant (p-- 0.05) increase”. Also, in the assay on small intestine [2], the “Small Intestine Weight % body wt” value is reported as 8.12 ± .40 % body wt; the “Small Intestine Weight Ave” value is reported as 2.08 ± .14 gm; the “Small Intestine Weight Day 10” value was 1.8 gm and 2.3 gm and 2.4 gm. Moreover, in the assay on large intestine, the “Large Intestine Mass” value was 0.245 g, the “% Change Relative to PBS Control (large intestine)” value is reported as -13.10% and the “Change in Intestine Mass Relative to Control (large intestine)” value is on record as -0.038 g. In the assay with small intestine [1], the “Small Intestine Mass” value is 1.066 g, the “% Change Relative to PBS Control (small intestine)” value is on record as “+3%” and the “Change in Intestine Mass Relative to Control (small intestine)” value worked out at 0.031 g.
